Assay results published in ChEMBL document CHEMBL3608287, “Potential Treatment for the Respiratory Syncytial Virus Infections (HRSV)” (ACS Med Chem Lett, 2015).

How the values were obtained:
[1] = Cytotoxicity against human MT4 cells; assay type: cell-based
[2] = system: Human orthopneumovirus; experiment: Antiviral activity against Human respiratory syncytial virus; assay type: functional, organism-based
[3] = Cytotoxicity against human Hep2 cells; assay type: cell-based, HEp-2
[4] = Inhibition of Human respiratory syncytial virus RNP

Row | SMILES | CC50 [1] [µM] | EC50 [2] [µM] | CC50 [3] [µM] | IC50 [4] [µM]
1 | N#C[C@]1(CO)O[C@@H](c2ccc3c(N)ncnn23)[C@H](O)[C@@H]1O | > 53 | 7.3 | > 50 | 
2 | C#C[C@]1(CO)O[C@@H](c2ccc3c(N)ncnn23)[C@H](F)[C@@H]1O | > 106 | 9.6 | > 100 | 
3 | C#C[C@]1(COP(=O)(O)OP(=O)(O)OP(=O)(O)O)O[C@@H](c2ccc3c(N)ncnn23)[C@H](F)[C@@H]1O |  |  |  | 1
4 | CC(C)(C)C(=O)SCCOP(=O)(OCCSC(=O)C(C)(C)C)OC[C@@]1(C#N)O[C@@H](c2ccc3c(N)ncnn23)[C@H](O)[C@@H]1O | 7.3 | 1 | 39 | 
5 | [N-]=[N+]=N[C@]1(CO)O[C@@H](c2ccc3c(N)nc(F)nn23)[C@H](F)[C@@H]1O | 32 | 0.57 | > 100 | 
6 | N#C[C@]1(CO)O[C@@H](c2cc(F)c3c(N)ncnn23)[C@H](O)[C@@H]1O | > 93 | 9.2 | > 100 | 
